Experimental data reported in article PMC9887599, “Synthesis, Optical Properties, and Antiproliferative Evaluation of NBD-Triterpene Fluorescent Probes” (Journal of Natural Products, 2022).

How the values were obtained:
[1] = system: HepG2 human hepatocyte carcinoma; experiment: MTT cell-viability assay, HepG2; assay type: cell-based; conditions: 72 h, untreated control cells as 100% viability
Protocol: (§1) The cytotoxic effects of 12 NBD-Aa-triterpene conjugates (1–12) were tested on three different cancer cell lines as a representation of cancers from different tissues and organs (B16-F10 murine melanoma, HT-29 human colon adenocarcinoma, and HepG2 human hepatocyte carcinoma). Cell viability was determined by MTT colorimetric analysis, with increasing concentration levels of each compound (0–200 μg/mL) and incubation for 72 h. The MTT assay was based on the metabolic reduction of 3-(4,5-dimethylthiazol-2-yl)-2,5-diphenyltetrazolium bromide (MTT) to a violet-colored compound (formazan), with a maximum absorbance at 570 nm. Cell viability was proportional to the amount of formazan and was expressed as the percentage of viable treated cells relative to untreated control cells. The concentration at which the derivatives halved the number of viable cells in the three cancer lines (IC50) was determined. […] These NBD conjugates of BO or BM also had higher IC50 values than their precursors (BO or BM), even in NBD conjugates with the shortest-chain ω-amino acid linker (6AHA) (Table 2). Due to these high IC50 values, all of these NBD-conjugated compounds were discarded for further cytometric studies.
(§2) The effect of the synthesized compounds on the viability of tumor cells was assessed using the MTT assay, based on the ability of living cells to metabolically reduce 3-(4,5-dimethylthiazole)-2,5-diphenyltetrazole bromide, rendering formazan, a colored compound with a maximum absorbance of 570 nm. To study the cytotoxic effects of the compounds in the three cancer cell lines, the different lines were seeded in 96-well plates at a cell density per well of 5 × 10^3 for B16-F10, 6 × 10^3 for HT-29, and 15 × 10^3 for HepG2. After seeding, the plates were grown for 24 h and subsequently treated in triplicate with different compounds at different concentrations (0–200 μg/mL) for 72 h. After this time, the cells were stained by adding […] of MTT (0.5 mg/mL) per well and incubated for 1 h. Subsequently, the cells were washed with phosphate-buffered saline (PBS), and formazan was resuspended in 100 μL of DMSO per well. Cell viability was measured by absorbance at 550 nm in an ELISA plate reader (Tecan Sunrise MR20–301, TECAN, Austria).
(§3) For this, Sigmaplot 12.5 software was used, and all quantitative data were expressed as means ± standard deviation (SD). All data shown are representative of at least two independent experiments performed in triplicate.

[2] = system: HT-29 human colon adenocarcinoma; experiment: MTT cell-viability assay, HT-29; assay type: cell-based; conditions: 72 h, untreated control cells as 100% viability
Protocol: as §1, §2, §3

[3] = system: B16-F10 murine melanoma; experiment: MTT cell-viability assay, B16-F10; assay type: cell-based; conditions: Mus musculus, 72 h, untreated control cells as 100% viability
Protocol: as §1, §2, §3

[4] = Absorption and fluorescence spectroscopy (photophysical data); assay type: physicochemical; conditions: DMSO, 25 °C; for τ (half-life time of fluorescence): 485 nm pulsed LED; for Φ (fluorescence quantum yield): Coumarin 6 as standard; for (λem)max: excitation at 480 nm
[5] = system: B16-F10, HT-29, and HepG2; experiment: MTT cell-viability assay, summary over the three cancer cell lines; assay type: cell-based, mouse, human; conditions: 72 h, stated as holding in most cases, read-out: IC50 concentrations over the three cancer cell lines, in most cases
Protocol: as §1, §2, §3

| SMILES | IC50 [2] [µM] | IC50 [3] [µM] | (λabs)max [4] [nm] | ε (molar extinction coefficient) [4] [M^–1 cm^–1] | τ (half-life time of fluorescence) [4] [ns] | Φ (fluorescence quantum yield) [4] | (λem)max [4] [nm] | IC50 [5] [µM] | IC50 [1] [µM] |
| --- | --- | --- | --- | --- | --- | --- | --- | --- | --- |
| CC1(C)CC[C@]2(C(=O)OCc3ccccc3)CC[C@]3(C)C(=CC[C@@H]4[C@@]5(C)C[C@@H](OC(=O)CCCCCNc6ccc([N+](=O)[O-])c7nonc67)[C@H](O)C(C)(C)[C@@H]5CC[C@]43C)[C@@H]2C1 [Compound 4, Benzyl 3β-Hydroxy-2α-((6-((7-nitrobenzo[c][1,2,5]oxadiazol-4-yl)amino)hexanoyl)oxy)olean-12-en-28-oate] | 121 ± 4 | 96.4 ± 0.9 | 480 | 1338 | 7.650 | 0.72 | 545 | > 80 | 91.2 ± 2.3 |
| CC1(C)CC[C@]2(C(=O)O)CC[C@]3(C)C(=CC[C@@H]4[C@@]5(C)CC[C@H](OC(=O)CCCCCCCNc6ccc([N+](=O)[O-])c7nonc67)C(C)(C)[C@@H]5CC[C@]43C)[C@@H]2C1 [Compound 5, 3β-((8-((7-Nitrobenzo[c][1,2,5]oxadiazol-4-yl)amino)octanoyl)oxy)olean-12-en-28-oic Acid] | 105 ± 1.2 | 137 ± 2 | 480 | 1144 | 7.654 | 0.73 | 545 | > 50 | 95.7 ± 3.4 |
| CC1(C)CC[C@]2(C(=O)OCc3ccccc3)CC[C@]3(C)C(=CC[C@@H]4[C@@]5(C)C[C@@H](OC(=O)CCCCCCCNc6ccc([N+](=O)[O-])c7nonc67)[C@H](O)C(C)(C)[C@@H]5CC[C@]43C)[C@@H]2C1 [Compound 8, Benzyl 3β-Hydroxy-2α-((8-((7-nitrobenzo[c][1,2,5]oxadiazol-4-yl)amino)octanoyl)oxy)olean-12-en-28-oate] | 123 ± 1.7 | 96.8 ± 1.8 | 481 | 3358 | 7.639 | 0.59 | 548 | > 80 | 95.3 ± 0.7 |
| CC1(C)CC[C@]2(C(=O)O)CC[C@]3(C)C(=CC[C@@H]4[C@@]5(C)CC[C@H](OC(=O)CCCCCCCCCCNc6ccc([N+](=O)[O-])c7nonc67)C(C)(C)[C@@H]5CC[C@]43C)[C@@H]2C1 [Compound 9, 3β-((11-((7-Nitrobenzo[c][1,2,5]oxadiazol-4-yl)amino)undecanoyl)oxy)olean-12-en-28-oic Acid] | 113 ± 4.4 | 101.1 ± 0.9 | 481 | 1015 | 7.635 | 0.71 | 546 | > 50 | 84.5 ± 0.4 |
| CC1(C)CC[C@]2(C(=O)O)CC[C@]3(C)C(=CC[C@@H]4[C@@]5(C)C[C@@H](OC(=O)CCCCCCCCCCNc6ccc([N+](=O)[O-])c7nonc67)[C@H](O)C(C)(C)[C@@H]5CC[C@]43C)[C@@H]2C1 [Compound 10, 3β-Hydroxy-2α-((11-((7-nitrobenzo[c][1,2,5]oxadiazol-4-yl)amino)undecanoyl)oxy)olean-12-en-28-oic Acid] | 110 ± 5.2 | 107.7 ± 0.4 | 481 | 1199 | 7.153 | 0.45 | 546 | > 50 | 122.8 ± 0.9 |
| CC1(C)CC[C@]2(C(=O)OCc3ccccc3)CC[C@]3(C)C(=CC[C@@H]4[C@@]5(C)CC[C@H](OC(=O)CCCCCCCCCCNc6ccc([N+](=O)[O-])c7nonc67)C(C)(C)[C@@H]5CC[C@]43C)[C@@H]2C1 [Compound 11] | 101 ± 1.1 | 92.3 ± 1.5 | 480 | 2718 | 7.645 | 0.49 | 546 | > 80 | 82.7 ± 2.5 |
| CC1(C)CC[C@]2(C(=O)O)CC[C@]3(C)C(=CC[C@@H]4[C@@]5(C)C[C@@H](O)[C@H](O)C(C)(C)[C@@H]5CC[C@]43C)[C@@H]2C1 [MA, 2α,3β-dihydroxyolean-12-en-28-oic acid, reference compound] | 32.2 ± 3.8 | 36.2 ± 2.5 | – | – | – | – | – | – | 99.2 ± 5.5 |
| CC1(C)CC[C@]2(C(=O)O)CC[C@]3(C)C(=CC[C@@H]4[C@@]5(C)CC[C@H](O)C(C)(C)[C@@H]5CC[C@]43C)[C@@H]2C1 [OA, 3β-hydroxyolean-12-en-28-oic acid, reference compound] | 429.9 ± 0.7 | 106 ± 3.7 | – | – | – | – | – | – | 211.8 ± 0.5 |

Second part, led by results:

| IC50 [2] [µM] | IC50 [3] [µM] | (λabs)max [4] [nm] | ε (molar extinction coefficient) [4] [M^–1 cm^–1] | τ (half-life time of fluorescence) [4] [ns] | Φ (fluorescence quantum yield) [4] | (λem)max [4] [nm] | IC50 [5] [µM] | SMILES | IC50 [1] [µM] |
| --- | --- | --- | --- | --- | --- | --- | --- | --- | --- |
| 15.3 ± 0.5 | 19 ± 0.2 | – | – | – | – | – | – | CC1(C)CC[C@]2(C(=O)OCc3ccccc3)CC[C@]3(C)C(=CC[C@@H]4[C@@]5(C)C[C@@H](O)[C@H](O)C(C)(C)[C@@H]5CC[C@]43C)[C@@H]2C1 [BM, 28-benzyl maslinate, reference compound] | 17 |
| 67.1 ± 3.2 | 52.2 ± 0.9 | – | – | – | – | – | – | CC1(C)CC[C@]2(C(=O)OCc3ccccc3)CC[C@]3(C)C(=CC[C@@H]4[C@@]5(C)CC[C@H](O)C(C)(C)[C@@H]5CC[C@]43C)[C@@H]2C1 [BO, 28-benzyl oleanolate, reference compound] | 38.7 ± 1.7 |
| 63.3 ± 2.4 | 76.6 ± 3.7 | 480 | 4035 | 7.761 | 0.67 | 545 | > 80 | CC1(C)CC[C@]2(C(=O)OCc3ccccc3)CC[C@]3(C)C(=CC[C@@H]4[C@@]5(C)CC[C@H](OC(=O)CCCCCNc6ccc([N+](=O)[O-])c7nonc67)C(C)(C)[C@@H]5CC[C@]43C)[C@@H]2C1 [Compound 3, Benzyl 3β-((6-((7-Nitrobenzo[C][1,2,5]oxadiazol-4-yl)amino)hexanoyl)oxy)olean-12-en-28-oate] | 74.3 ± 0.7 |
| 45.2 ± 0.9 | 39.5 ± 0.8 | 481 | 1986 | 7.621 | 0.55 | 546 | > 50 | CC1(C)CC[C@]2(C(=O)O)CC[C@]3(C)C(=CC[C@@H]4[C@@]5(C)C[C@@H](OC(=O)CCCCCCCNc6ccc([N+](=O)[O-])c7nonc67)[C@H](O)C(C)(C)[C@@H]5CC[C@]43C)[C@@H]2C1 [Compound 6, 3β-Hydroxy-2α-((8-((7-nitrobenzo[c][1,2,5]oxadiazol-4-yl)amino)octanoyl)oxy)olean-12-en-28-oic Acid] | 98.5 ± 0.8 |
| 95.9 ± 2.2 | 74.2 ± 2.2 | 480 | 2645 | 7.724 | 0.71 | 547 | > 80 | CC1(C)CC[C@]2(C(=O)OCc3ccccc3)CC[C@]3(C)C(=CC[C@@H]4[C@@]5(C)CC[C@H](OC(=O)CCCCCCCNc6ccc([N+](=O)[O-])c7nonc67)C(C)(C)[C@@H]5CC[C@]43C)[C@@H]2C1 [Compound 7, Benzyl 3β-((8-((7-Nitrobenzo[c][1,2,5]oxadiazol-4-yl)amino)octanoyl)oxy)olean-12-en-28-oate] | 71.6 ± 1.7 |
